US11136301B2, “Broad spectrum antiviral compounds and uses thereof” (The Regents Of The University Of California, priority 2015, dated 2021)
Read-outs that look alike come from different tables or passages of the source.

Tested on: wild-type HIV-1 (HIV-1LAI) in H9 cells (non-permissive)
Experiment: microbe, parasite or virus in culture
Assay type: cell-based
[1] = Human immunodeficiency virus 1, H9, read-out: Antiviral activity (IC50 μM) H9 cells, Table 5, wild-type HIV-1, non-permissive H9 cells
[2] = Human immunodeficiency virus 1, H9, read-out: Antiviral activity (IC50 μM) H9 cells, Table 8, wild-type HIV-1, non-permissive H9 cells
[3] = Human immunodeficiency virus 1, H9, read-out: Antiviral activity (IC50 μM) H9 cells, wild-type HIV-1 (HIV-1LAI), H9 cells (non-permissive), RT activity in culture supernatants, compounds 1 to 50 μM
[4] = read-out: Antiviral activity (IC50 μM) H9, Table 2, wild-type HIV-1, non-permissive H9 cells
[5] = read-out: Antiviral activity (IC50 μM) H9 cells, Table 5, wild-type HIV-1, non-permissive H9 cells
[6] = read-out: Antiviral activity (IC50 μM) H9 cells, Table 8, wild-type HIV-1, non-permissive H9 cells
[7] = read-out: Antiviral activity (IC50 μM) H9 cells, wild-type HIV-1 (HIV-1LAI), H9 cells (non-permissive), RT activity in culture supernatants, compounds 1 to 50 μM
[8] = Human immunodeficiency virus 1, H9, read-out: Antiviral activity (IC50 μM) H9 Cells, Table 4, wild-type HIV-1, non-permissive H9 cells
[9] = Human immunodeficiency virus 1, H9, read-out: Antiviral activity (IC50 μM) H9 Cells, Table 7, wild-type HIV-1, non-permissive H9 cells

For COc1ccc(Sc2ccccc2-c2cn(-c3ccccc3OC)nn2)cc1 [Compound 2cx, 1-(2-Methoxyphenyl)-4-(2-((4-methoxyphenyl)thio)phenyl)-1H-1,2,3-triazole], the IC50 [1] was 13.6 µM, the IC50 [2] was 13.6 µM and the IC50 [3] was 13.6 µM.

COc1ccccc1-n1cc(-c2ccccc2Sc2ccc(C(=O)O)cc2)nn1 [Compound 2gx, 2-Hydroxy-N,N,N-trimethylethanaminium 4-((2-(1-(2-methoxyphenyl)-1H-1,2,3-triazol-4-yl)phenyl)thio)benzoate] showed an IC50 [4] of over 50 µM, an IC50 [5] of over 50 µM and an IC50 [6] of over 50 µM. It also gave an IC50 [7] of over 50 µM.

For COc1ccc(Sc2ccccc2-c2cn(-c3cccc(OC)c3OC)nn2)cc1 [Compound 3cx, 1-(2,3-Dimethoxyphenyl)-4-(2-((4-methoxyphenyl)thio)phenyl)-1H-1,2,3-triazole], the IC50 [8] was 4.7 µM, the IC50 [9] was 4.7 µM and the IC50 [1] was 4.7 µM. The IC50 [2] was 4.7 µM and the IC50 [3] was 4.7 µM.

With COc1cccc(-n2cc(-c3ccccc3Sc3ccc(N)cc3)nn2)c1OC [Compound 3ex, 4-((2-(1-(2,3-Dimethoxyphenyl)-1H-1,2,3-triazol-4-yl)phenyl)thio)aniline] the IC50 [1] was 5 µM, the IC50 [2] was 5 µM and the IC50 [3] was 5 µM.

Compound COc1cccc(-n2cc(-c3ccccc3Sc3ccc(C(=O)O)cc3)nn2)c1OC [Compound 3gx, 2-Hydroxy-N,N,N-trimethylethanaminium 4-((2-(1-(2,3-dimethoxyphenyl)-1H-1,2,3-triazol-4-yl)phenyl)thio)benzoate] has an IC50 [4] of 4.3 µM, an IC50 (read-out: Antiviral activity (IC50 μM) H9 Cells, Table 4, wild-type HIV-1, non-permissive H9 cells) of 4.3 µM and an IC50 (read-out: Antiviral activity (IC50 μM) H9 Cells, Table 7, wild-type HIV-1, non-permissive H9 cells) of 4.3 µM. For the same compound, the IC50 [5] was 4.3 µM, the IC50 [6] was 4.3 µM and the IC50 [7] was 4.3 µM.

With COc1cccc(-n2cc(-c3ccccc3S(=O)(=O)c3ccc(C(=O)O)cc3)nn2)c1OC [Compound 3gy, 2-Hydroxy-N,N,N-trimethylethanaminium 4-((2-(1-(2,3-dimethoxyphenyl)-1H-1,2,3-triazol-4-yl)phenyl)sulfonyl)benzoate] the IC50 [4] was over 50 µM, the IC50 [5] was over 50 µM and the IC50 [6] was over 50 µM. The IC50 [7] was over 50 µM.

COc1ccc(-n2cc(-c3ccccc3Sc3ccc([N+](=O)[O-])cc3)nn2)c(OC)c1 [Compound 4ax, 1-(2,4-Dimethoxyphenyl)-4-(2-((4-nitrophenyl)thio)phenyl)-1H-1,2,3-triazole] gave an IC50 [1] of over 50 µM, an IC50 [2] of over 50 µM and an IC50 [3] of over 50 µM.

In the case of COC(=O)c1ccc(S(=O)(=O)c2ccccc2-c2cn(-c3ccc(OC)cc3OC)nn2)cc1 [Compound 4by, Methyl 4-((2-(1-(2,4-dimethoxyphenyl)-1H-1,2,3-triazol-4-yl)phenyl)sulfonyl)benzoate], the IC50 [1] is reported as 7.6 µM, the IC50 [2] is reported as 7.6 µM and the IC50 [3] is reported as 7.6 µM.

COc1ccc(Sc2ccccc2-c2cn(-c3ccc(OC)cc3OC)nn2)cc1 [Compound 4cx, 1-(2,4-Dimethoxyphenyl)-4-(2-((4-methoxyphenyl)thio)phenyl)-1H-1,2,3-triazole] was tested, and the IC50 [1] was over 50 µM, the IC50 [2] was over 50 µM and the IC50 [3] was over 50 µM.

COc1ccc(-n2cc(-c3ccccc3Sc3ccc(C(F)(F)F)cc3)nn2)c(OC)c1 [Compound 4dx, 1-(2,4-Dimethoxyphenyl)-4-(2-((4-(trifluoromethyl)phenyl)thio)phenyl)-1H-1,2,3-triazole] gave an IC50 [1] of 1.1 µM, an IC50 [2] of 1.1 µM and an IC50 [3] of 1.1 µM.

COc1ccc(-n2cc(-c3ccccc3Sc3ccc(N)cc3)nn2)c(OC)c1 [Compound 4ex, 4-((2-(1-(2,4-Dimethoxyphenyl)-1H-1,2,3-triazol-4-yl)phenyl)thio)aniline] gave an IC50 [1] of over 50 µM, an IC50 [2] of over 50 µM and an IC50 [3] of over 50 µM.

Work on COc1ccc(-n2cc(-c3ccccc3S(=O)(=O)c3ccc(N)cc3)nn2)c(OC)c1 [Compound 4ey, 4-((2-(1-(2,4-Dimethoxyphenyl)-1H-1,2,3-triazol-4-yl)phenyl)sulfonyl)aniline] yielded an IC50 [1] of over 50 µM, an IC50 [2] of over 50 µM and an IC50 [3] of over 50 µM.

Compound COc1ccc(-n2cc(-c3ccccc3S(=O)(=O)c3ccc(C(=O)O)cc3)nn2)c(OC)c1 [Compound 4fy, 4-((2-(1-(2,4-Dimethoxyphenyl)-1H-1,2,3-triazol-4-yl)phenyl)sulfonyl)benzoic Acid] has an IC50 [1] of over 50 µM, an IC50 [2] of over 50 µM and an IC50 [3] of over 50 µM.

In the case of COc1ccc(-n2cc(-c3ccccc3Sc3ccc(C(=O)O)cc3)nn2)c(OC)c1 [Compound 4gx, 2-Hydroxy-N,N,N-trimethylethanaminium 4-((2-(1-(2,4-dimethoxyphenyl)-1H-1,2,3-triazol-4-yl)phenyl)thio)benzoate], the IC50 [5] is reported as over 50 µM, the IC50 [6] is reported as over 50 µM and the IC50 [7] is reported as over 50 µM.

With COc1ccc(OC)c(-n2cc(-c3ccccc3S(=O)(=O)c3ccc(C(F)(F)F)cc3)nn2)c1 [Compound 5dy, 1-(2,5-Dimethoxyphenyl)-4-(2-((4-(trifluoromethyl)phenyl)sulfonyl)phenyl)-1H-1,2,3-triazole] the IC50 [1] was 4.3 µM, the IC50 [2] was 4.3 µM and the IC50 [3] was 4.3 µM.

In the case of COc1ccc(OC)c(-n2cc(-c3ccccc3Sc3ccc(C(=O)O)cc3)nn2)c1 [Compound 5gx, 2-Hydroxy-N,N,N-trimethylethanaminium 4-((2-(1-(2,5-dimethoxyphenyl)-1H-1,2,3-triazol-4-yl)phenyl)thio)benzoate], the IC50 [5] is reported as over 50 µM, the IC50 [6] is reported as over 50 µM and the IC50 [7] is reported as over 50 µM.

COc1cccc(OC)c1-n1cc(-c2ccccc2Sc2ccc([N+](=O)[O-])cc2)nn1 [Compound 6ax, 1-(2,6-Dimethoxyphenyl)-4-(2-((4-nitrophenyl)thio)phenyl)-1H-1,2,3-triazole] gave an IC50 [1] of 6.3 µM, an IC50 [2] of 6.3 µM and an IC50 [3] of 6.3 µM.

With COc1ccc(Sc2ccccc2-c2cn(-c3c(OC)cccc3OC)nn2)cc1 [Compound 6cx, 1-(2,6-Dimethoxyphenyl)-4-(2-((4-methoxyphenyl)thio)phenyl)-1H-1,2,3-triazole] the IC50 [1] was over 50 µM, the IC50 [2] was over 50 µM and the IC50 [3] was over 50 µM.

COc1cccc(OC)c1-n1cc(-c2ccccc2Sc2ccc(C(F)(F)F)cc2)nn1 [Compound 6dx, 1-(2,6-Dimethoxyphenyl)-4-(2-((4-(trifluoromethyl)phenyl)thio)phenyl)-1H-1,2,3-triazole] was tested, and the IC50 [1] was 5.3 µM, the IC50 [2] was 5.3 µM and the IC50 [3] was 5.3 µM.

With COc1cccc(OC)c1-n1cc(-c2ccccc2S(=O)(=O)c2ccc(C(F)(F)F)cc2)nn1 [Compound 6dy, 1-(2,6-Dimethoxyphenyl)-4-(2-((4-(trifluoromethyl)phenyl)sulfonyl)phenyl)-1H-1,2,3-triazole] the IC50 [1] was over 50 µM, the IC50 [2] was over 50 µM and the IC50 [3] was over 50 µM.

With COc1cccc(OC)c1-n1cc(-c2ccccc2Sc2ccc(N)cc2)nn1 [Compound 6ex, 4-((2-(1-(2,6-Dimethoxyphenyl)-1H-1,2,3-triazol-4-yl)phenyl)thio)amine] the IC50 [8] was 1.5 µM, the IC50 [9] was 1.5 µM and the IC50 [1] was 1.5 µM. It also gave an IC50 [2] of 1.5 µM, an IC50 [3] of 1.5 µM and an IC50 (Human immunodeficiency virus 1, H9, read-out: IC50, anti-HIV-1 activity, non-permissive H9 cells) of 1 to 3 µM.

With COc1cccc(OC)c1-n1cc(-c2ccccc2Sc2ccc(C(=O)O)cc2)nn1 [Compound 6gx, 2-Hydroxy-N,N,N-trimethylethanaminium 4-((2-(1-(2,6-dimethoxyphenyl)-1H-1,2,3-triazol-4-yl)phenyl)thio)benzoate] the IC50 [4] was 52 µM, the IC50 [5] was 52 µM and the IC50 [6] was 52 µM. The IC50 [7] was 52 µM.

In the case of COc1cccc(OC)c1-n1cc(-c2ccccc2S(=O)(=O)c2ccc(C(=O)O)cc2)nn1 [Compound 6gy, 2-Hydroxy-N,N,N-trimethylethanaminium 4-((2-(1-(2,6-dimethoxyphenyl)-1H-1,2,3-triazol-4-yl)phenyl)sulfonyl)benzoate], the IC50 [4] is reported as over 50 µM, the IC50 [5] is reported as over 50 µM and the IC50 [6] is reported as over 50 µM. It also gave an IC50 [7] of over 50 µM.

COC(=O)c1ccc(S(=O)(=O)c2ccccc2-c2cn(-c3c(F)cccc3OC)nn2)cc1 [Compound 7by, Methyl 4-((2-(1-(2-fluoro-6-methoxyphenyl)-1H-1,2,3-triazol-4-yl)phenyl)sulfonyl)benzoate] gave an IC50 [1] of over 50 µM, an IC50 [2] of over 50 µM and an IC50 [3] of over 50 µM.

COc1ccc(Sc2ccccc2-c2cn(-c3c(F)cccc3OC)nn2)cc1 [Compound 7cx, 1-(2-Fluoro-6-methoxyphenyl)-4-(2-((4-methoxyphenyl)thio)phenyl)-1H-1,2,3-triazole] showed an IC50 [1] of over 50 µM, an IC50 [2] of over 50 µM and an IC50 [3] of over 50 µM.

For COc1cccc(F)c1-n1cc(-c2ccccc2Sc2ccc(C(F)(F)F)cc2)nn1 [Compound 7dx, 1-(2-Fluoro-6-methoxyphenyl)-4-(2-((4-(trifluoromethyl)phenyl)thio)phenyl)-1H-1,2,3-triazole], the IC50 [1] was 10 µM, the IC50 [2] was 10 µM and the IC50 [3] was 10 µM.

Work on COc1cccc(F)c1-n1cc(-c2ccccc2Sc2ccc(C(=O)O)cc2)nn1 [Compound 7gx, 2-Hydroxy-N,N,N-trimethylethanaminium 4-((2-(1-(2-fluoro-6-methoxyphenyl)-1H-1,2,3-triazol-4-yl)phenyl)thio)benzoate] yielded an IC50 [5] of over 50 µM, an IC50 [6] of over 50 µM and an IC50 [7] of over 50 µM.
